Test results from patent publication US20260209152A1, “Substituted Hydroxystilbene Compounds and Derivatives, Synthesis and Uses Thereof” (Kynan Duke IP, LLC, priority 2019, published 2026).
Where “and” joins values, the source holds several entries; their conditions need not be identical. Equal entries are not always repeated. Entries after “also recorded” stand apart in the source; their conditions may differ. Where two headings read alike, the source gives them in different places.

What was measured:
[1] = test system: Breast MCF7; assay: CellTiter Glo cell viability assay; format: cell-based, human; conditions: for IC50: Homo sapiens, MCF7, 72 h, 3 Days of treatment, 18 2-fold dilutions 5-0.00003 μM
Outline: (§1)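 Cells seeded at 1.7*10^3/well in quadruplicate; compounds at 18 two-fold dilutions from 5 μM (0.000038146-5 μM), or at 1, 2, 5, 10 and 20 μM. CellTiter Glo luminescence read on days 1, 3 and 5 after treatment. IC50 by nonlinear regression of luminescence versus log dose.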

[2] = test system: Osteosarcomas SJSA_1; assay: CellTiter Glo cell viability assay; format: cell-based, human; conditions: for IC50: Homo sapiens, SJSA-1, 72 h, 3 Days of treatment, 18 2-fold dilutions 5-0.00003 μM
Outline: as §1

[3] = test system: Kidney CRL-1611; assay: CellTiter Glo cell viability assay; format: cell-based; conditions: Homo sapiens, 72 h
Method: (§2) 1.7*10^3 cells/well were seeded in quadruplicates in 96-well plate after plating. Drugs were added at 5 μM and 2-fold dilutions over 18 concentrations (0.000038146-5 […] range) to generate a dose-response curve. Cell growth was assessed on day 1, 3 and 5 after drug treatments using the CellTiter Glo Luminescence Cell Viability Assay (Promega) according to manufacturer's protocol. Thermo Scientific Varioskan LUX Multimode Microplate instrument was used for plate reading. Data are expressed as mean luminescence (arbitrary units) ±S.D.
(§3) Cell Viability Assays were employed to determine the concentration of Compound 1 (KYN-001) and analogues where the response is reduced by half. For each treatment of cancer cells, 1, 2, 5, 10 and 20 μM solutions of compounds were applied. GraphPad Prism 7 software was used to fit dose response curves. Relative Luminescence Units were plotted against the log values of the doses used and the nonlinear regression model was used for data analysis.
(§4) The protocol for cell proliferation was optimized for Compound 8 (KYN-119) to enable a more accurate assessment of its low IC50 value. In this protocol, 18 dosages (2 fold dilutions ranging from 0.000038146 to 5 μM) were applied to cells seeded in 96-well plates, and Luminescence was measured after 1, 3 and 5 days upon treatments.

[4] = test system: Rhabomyosarcoma SJCRH30; assay: CellTiter Glo cell viability assay; format: cell-based, human
Outline: as §1

[5] = test system: Bladder HT_1376; assay: CellTiter Glo cell viability assay; format: cell-based; conditions: Homo sapiens, HT-1376, 72 h; 3 Days of treatment; 18 2-fold dilutions 5-0.00003 μM
Method: as §2, §3, §4

[6] = test system: Liver JHH-5; assay: CellTiter Glo cell viability assay; format: cell-based; conditions: Homo sapiens, 72 h; 3 Days of treatment; 18 2-fold dilutions 5-0.00003 μM
Method: as §2, §3, §4

[7] = test system: Pancreatic AsPC-1n; assay: CellTiter Glo cell viability assay; format: cell-based; conditions: Homo sapiens, 72 h; 3 Days of treatment; 18 2-fold dilutions 5-0.00003 μM
Method: as §2, §3, §4

[8] = test system: BalbC mice; assay: Maximum Tolerable Dose - LD/50 single dose oral administration; format: in vivo; conditions: single oral dose 2000 mg/kg in SEDDS vehicle, 5 BalbC mice, observation 5 days
Method: To ascertain initial information regarding the toxicity and tolerability of compound 27.
• A single administration of orally formulated maximum dose, 2000 mg/kg was given to 5 BalbC mice. Observation was carried out for 5 days.
• Compound 27 was weighed out and diluted into the same SEDDS vehicle used for S1. The SEDDS vehicle is composed of the following components: • Labrasol (30%) • PEG-400 (20%) • Kolliphore RH-40 (30%) • Labrafil (20%) • The concentration of 27 in SEDDS was 200 mg/mL which would translate to a 2000 mg/kg oral dose for a 20 g mouse administered 200 ul. Oral administration was administered to 5 mice and the animals were carefully observed for signs of toxicity in the first hour then sporadically over 5 days.

[9] = test system: melanoma B16F10 xenografted in BALB/c mice; assay: B16F10 xenografted mice: tumor volume and histopathology; format: in vivo
Method: (§5) B16F10 cells (25×10^5 cells/mouse) were injected subcutaneously into the right flank of female BALB/c mice aged 7-8 weeks. Mice (n=10) were divided into 2 groups and given daily oral suspension of 27 (treated group), or vehicle (control group) for 15 days. The treated group was orally given a suspension of 27 at 900 mg/kg. The control group was given the vehicle suspension (SEDDS). Measurements performed on days 0, 9 and 15 only. Tissues (plasma, tumor, liver, spleen and brain) were harvested within 3 hours of final treatment. Biopsies of tumor tissues for histopathology were obtained subsequently.
Tissue samples from the tumors of both treated and control mice were fixed with formalin. Histopathological examination of these tumor samples was performed by Lore Laboratory, CA, USA.

[10] = Concentration of compound 27 in tissues (LC/MS/MS) of B16F10 xenografted mice; format: in vivo
Method: (§6) • Observe and assess the effect of oral administration of 27 on animal wellbeing. • Quantify levels of 27 in tissues (plasma, tumor, liver, spleen and brain) to assess the compound bioaccumulation and distribution.
as §5
Concentrations of 27 in different tissues were determined using LC/MS/MS spectrometry.

[11] = test system: BALB/c mice; assay: Effect of oral administration on animal wellbeing in B16F10 xenografted mice; format: in vivo; conditions: 900 mg/kg oral daily for 15 days
Method: as §6, §5

[12] = IC50 of 1 [KYN-001] vs 8 [KYN-119], 3 Days
[13] = 900 mg/kg oral daily, individual treated mice
[14] = individual treated mice, 900 mg/kg oral daily for 15 days in SEDDS, harvested within 3 hours of final treatment, LC/MS/MS, 900 mg/kg

COc1cc(/C=C/c2cc(O)cc(OC)c2CC=C(C)C)ccc1O [Compound 1, (E)-3-(4-hydroxy-3-methoxystyryl)-5-methoxy-4-(3-methylbut-2-en-1-yl)phenol] gave an IC50 [1] of 694 nM, an IC50 [2] of 2.3 µM and an IC50 ([3]; 3 Days of treatment, 18 2-fold dilutions 5-0.00003 μM, read-out: Average IC50) of 93.7 nM. The IC50 ([3]; Day 3 upon drug treatment, 10 dosages 0.0001-20 μM, read-out: IC50) was 93.7 nM.

With CCOc1cc(O)cc(/C=C/c2ccc(O)c(OC)c2)c1CC=C(C)C [Compound 8, (E)-3-Ethoxy-5-(4-hydroxy-3-methoxystyryl)-4-(3-methylbut-2-en-1-yl)phenol] the IC50 [1] was 136 nM, the “Fold IC50” value [1, 12] was 5.1 and the IC50 [2] was 9.58 µM. The “Fold IC50” value [2, 12] was 0.2, the IC50 ([4]; Homo sapiens, 72 h, 3 Days of treatment, 18 2-fold dilutions 5-0.00003 μM) was 43.4 nM and the “Fold IC50” value [4, 12] was 1.9. It also gave an IC50 [5] of 610 nM, an IC50 [6] of 4.37 µM and an IC50 [7] of 2000 nM.

For COc1cc(/C=C/c2cc(O)cc(OC)c2CC=C(C)C)ccc1NC=O [Compound 27, (E)-N-(4-(5-hydroxy-3-methoxy-2-(3-methylbut-2-en-1-yl)styryl)-2-methoxyphenyl)formamide], the “Toxicity and tolerability, survival and signs of distress” value [8] was “All five mice survived and showed no immediate signs of distress; also recorded: high degree of oral tolerability”, the “Histochemical analysis of tumor samples, in words” value ([9]; 900 mg/kg oral daily for 15 days) was “tumors were subsequently diminished after day 10; also recorded: lysed and/or underwent necrosis” and the “Tumor volume Day 0” value [9, 13] was 109.29 mm^3 and 52.18 mm^3 and 58.45 mm^3 and 82.97 mm^3 and 66.82 mm^3. The “Tumor volume Day 9” value [9, 13] was 132.59 mm^3 and 178.68 mm^3 and 37.38 mm^3 and 60.93 mm^3 and 47.3 mm^3, the “Tumor volume Day 15” value [9, 13] was 5.31 mm^3 and 19.93 mm^3 and 35.03 mm^3 and 42.35 mm^3 and 39.44 mm^3 and the “Tissue distribution, in words” value ([10]; 900 mg/kg oral daily for 15 days, tissues harvested within 3 hours of final treatment) was “Low plasma level; also recorded: high tendency to accumulate in the brain”. The “Concentration of compound 27 in tissues: Liver” value [10, 14] was 12.6 μg/mg and 10.2 μg/mg and 1.0 μg/mg and 0.0 μg/mg (2×), the “Concentration of compound 27 in tissues: Plasma” value [10, 14] was 0.0 ng/mL (3×) and 8.4 ng/mL and 0.4 ng/mL and the “Concentration of compound 27 in tissues: Spleen” value [10, 14] was 2 μg/mg and 0 μg/mg (4×). The “Concentration of compound 27 in tissues: Tumor” value [10, 14] was 0 μg/mg (3×) and 11.6 μg/mg and the “Signs of toxic effect” value [11] was “no signs of toxic effect; also recorded: low toxicity when given orally”.
